{"source": "patent US20210285949A1", "about": "(priority 2020, published 2021)", "key": {"endotoxemic rats": {"system": "endotoxemic rats", "conditions": "pre-treatment; cited from earlier work"}, "[1]": {"system": "patients with septic shock and elevated adrenomedullin", "assay": "AdrenOSS-2 phase II clinical trial", "type": "in vivo, human", "excerpt": "AdrenOSS-2 is a double-blind, placebo-controlled, randomized, multicenter, proof of concept and dose-finding phase II clinical trial to investigate the safety, tolerability and efficacy of the N-terminal ADM antibody named Adrecizumab in patients with septic shock and elevated adrenomedullin (Geven et al. BMJ Open 2019; 9:e024475). In total, 301 patients with septic shock and bio-ADM concentration >70 pg/mL were randomized (2:1:1) to treatment with a single intravenous infusion over approximately 1 hour with either placebo (n=152), adrecizumab […] (n=72) or Adrecizumab […] (n=77). All-cause mortality within 28 (90) days after inclusion was 25.8% (34.8%). Mean age was 68.4 years and 61% were male. For the per protocol analysis, n=294 patients remained eligible, and 14-day all-cause mortality rate was 18.5%.\nFurthermore, different subpopulations of the cohort were analyzed. Main outcomes were 28-day mortality, change in Horovitz Index (PaO2/FiO2) (at 24 h/48 h/72 h), change in SOFA score (at 24 h/48 h/72 h) or change in respiratory SOFA score component (also based on PaO2/FiO2) (at 24 h/48 h/72 h). All p-values are 2-sided and a p-value of 0.20 should be considered significant."}, "[2]": {"system": "mice with CLP-induced sepsis", "conditions": "pre-treatment, cited from earlier work"}, "[3]": {"conditions": "cited from earlier work"}, "[4]": {"system": "extreme-critically ill COVID-19 patients with acute respiratory distress syndrome (ARDS)", "conditions": "cited from earlier work"}}, "note": "Like-named read-outs stand apart in the source and are kept apart here."}
{"substance": "Adrecizumab: humanized N-terminal anti-ADM monoclonal antibody, heavy chain SEQ ID NO: 35, light chain SEQ ID NO: 36", "values": [{"measurement": "renal vascular leakage", "setting": "endotoxemic rats", "value": "attenuated"}, {"measurement": "change in Horovitz-Index", "setting": "[1]; Horovitz-Index <170 and mechanical ventilation (n=48), after 24 hours (0.48)", "value": "trended to be higher"}, {"measurement": "change in SOFA score vs placebo", "setting": "[1]; Horovitz-Index <170 and mechanical ventilation (n=48), after 24 hours, p=0.032", "value": "significantly lower"}, {"measurement": "change in SOFA score vs placebo", "setting": "[1]; Horovitz-Index <170 and mechanical ventilation (n=48), after 48 hours, p=0.012", "value": "significantly lower"}, {"measurement": "change in Horovitz-Index, mean increase", "setting": "[1]; Horovitz-Index <170 and mechanical ventilation (n=48), after 48 hours, p=0.09", "value": 64.2}, {"measurement": "change in SOFA score vs placebo", "setting": "[1]; Horovitz-Index <170 and mechanical ventilation (n=48), after 72 hours, p=0.028", "value": "significantly lower"}, {"measurement": "change in Horovitz-Index, mean increase", "setting": "[1]; Horovitz-Index <170 and mechanical ventilation (n=48), after 72 hours, p=0.11", "value": 66.4}, {"measurement": "28-day mortality vs placebo", "setting": "[1]; Horovitz-Index <170 and mechanical ventilation at baseline (n=48), p=0.37", "value": "trended to be lower"}, {"measurement": "change in SOFA score vs placebo", "setting": "[1]; mechanical ventilation at baseline (n=161), after 24 hours, p=0.002", "value": "significantly lower"}, {"measurement": "change in respiratory SOFA score vs placebo", "setting": "[1]; mechanical ventilation at baseline (n=161), after 24 hours, p=0.021", "value": "significantly lower"}, {"measurement": "change in Horovitz-Index", "setting": "[1]; mechanical ventilation at baseline (n=161), after 48 hours, p=0.007", "value": "significantly higher"}, {"measurement": "change in respiratory SOFA score vs placebo", "setting": "[1]; mechanical ventilation at baseline (n=161), after 48 hours, p=0.011", "value": "significantly lower"}, {"measurement": "change in SOFA score vs placebo", "setting": "[1]; mechanical ventilation at baseline (n=161), after 48 hours, p=0.109", "value": "significantly lower"}, {"measurement": "change in respiratory SOFA score vs placebo", "setting": "[1]; mechanical ventilation at baseline (n=161), after 72 hours, p=0.066", "value": "significantly lower"}, {"measurement": "change in Horovitz-Index", "setting": "[1]; mechanical ventilation at baseline (n=161), after 72 hours, p=0.087", "value": "significantly higher"}, {"measurement": "change in SOFA score vs placebo", "setting": "[1]; mechanical ventilation at baseline (n=161), after 72 hours, p=0.31", "value": "trended to be lower"}, {"measurement": "change in Horovitz-Index, mean increase", "setting": "[1]; mechanical ventilation at baseline (n=161), at 24 hours, p=0.155", "value": 56.2}, {"measurement": "28-day mortality vs placebo", "setting": "[1]; mechanical ventilation at baseline (n=161), p=0.157", "value": "significantly lower"}, {"measurement": "change in SOFA score vs placebo", "setting": "[1]; shock patients with ALI/ARDS (n=80), after 24 hours, p=0.005", "value": "significantly lower"}, {"measurement": "change in respiratory SOFA score vs placebo", "setting": "[1]; shock patients with ALI/ARDS (n=80), after 24 hours, p=0.26", "value": "trended to be lower"}, {"measurement": "change in SOFA score vs placebo", "setting": "[1]; shock patients with ALI/ARDS (n=80), after 48 hours, p=0.025", "value": "significantly lower"}, {"measurement": "change in respiratory SOFA score vs placebo", "setting": "[1]; shock patients with ALI/ARDS (n=80), after 48 hours, p=0.09", "value": "significantly lower"}, {"measurement": "change in SOFA score vs placebo", "setting": "[1]; shock patients with ALI/ARDS (n=80), after 72 hours, p=0.38", "value": "trended to be lower"}, {"measurement": "renal vascular leakage", "setting": "[2]; mice with CLP-induced sepsis", "value": "attenuated"}, {"measurement": "7-day survival", "setting": "[2]; repeated dose administration (control 0%)", "value": 40, "unit": "%"}, {"measurement": "7-day survival", "setting": "[2]; single dose administration (control 10%)", "value": 50, "unit": "%"}, {"measurement": "circulating ADM following administration", "setting": "[3]; animal and human data", "value": "potent, dose-dependent increase"}, {"measurement": "safety and tolerability, serious adverse events", "setting": "[3]; phase I study", "value": "no serious adverse events were observed"}, {"measurement": "mortality", "setting": "[4]; compared with mortality calculated by the SOFA score", "value": "lower than expected"}, {"measurement": "PaO2/FiO2", "setting": "[4]; single dose, within 12 days", "value": "increased"}, {"measurement": "SOFA score and disease severity score", "setting": "[4]; single dose, within 12 days", "value": "decreased in five out of the seven surviving patients"}, {"measurement": "inflammatory parameters C-reactive protein, procalcitonin, and interleukin-6", "setting": "[4]; single dose", "value": "decreased"}]}
